US12599136B2, “Substituted isophthalic acid diamides and their use as herbicides” (Bayer Aktiengesellschaft, priority 2020, dated 2026)

What was measured:
Assay type in all cases: in vivo
Setaria viridis [1] = assay: Pre-emergence herbicidal action against SETVI; settings: 80 g/ha
Procedure, shortened: (§1)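 Pre-emergence soil-surface spray of formulated compound (WP or EC; 600 to 800 l/ha; 0.2% wetting agent) over seeds sown in sandy loam. After 3 weeks under greenhouse conditions, damage is estimated visually in percent against untreated plants.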

Amaranthus retroflexus [2] = assay: Pre-emergence herbicidal action against AMARE; settings: visual score after 3 weeks vs untreated controls
Procedure, shortened: as §1

Avena fatua [3] = assay: Post-emergence herbicidal action against AVEFA; settings: 20 g/ha, visual assessment about 3 weeks after treatment
Procedure, shortened: (§2)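 Spray, one-leaf stage: WP or EC compound in water, 600–800 l/ha, 0.2% wetting agent. Plants held about 3 weeks in the greenhouse, then visually rated in percent of kill compared with untreated controls.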

Viola tricolor [4] = assay: Post-emergence herbicidal action against VIOTR
Procedure, shortened: as §2

Alopecurus myosuroides [5] = assay: Post-emergence herbicidal action against ALOMY
Procedure, shortened: as §2

Viola tricolor [6] = assay: Pre-emergence herbicidal action against VIOTR
Procedure, shortened: as §1

Alopecurus myosuroides [7] = assay: Pre-emergence herbicidal action against ALOMY; settings: 80 g/ha; visual score after 3 weeks vs untreated controls
Procedure, shortened: as §1

Echinochloa crus-galli [8] = assay: Post-emergence herbicidal action against ECHCG; settings: visual assessment about 3 weeks after treatment
Procedure, shortened: as §2

Abutilon theophrasti [9] = assay: Pre-emergence herbicidal action against ABUTH; settings: visual score after 3 weeks vs untreated controls
Procedure, shortened: as §1

Echinochloa crus-galli [10] = assay: Pre-emergence herbicidal action against ECHCG; settings: 80 g/ha; visual score after 3 weeks vs untreated controls
Procedure, shortened: as §1

Pharbitis purpurea = assay: Post-emergence herbicidal action against PHBPU; settings: visual assessment about 3 weeks after treatment
Procedure, shortened: as §2

Matricaria inodora [11] = assay: Pre-emergence herbicidal action against MATIN; settings: visual score after 3 weeks vs untreated controls
Procedure, shortened: as §1

Veronica persica [12] = assay: Pre-emergence herbicidal action against VERPE
Procedure, shortened: as §1

Setaria viridis [13] = assay: Post-emergence herbicidal action against SETVI; settings: visual assessment about 3 weeks after treatment
Procedure, shortened: as §2

Digitaria sanguinalis [14] = assay: Pre-emergence herbicidal action against DIGSA
Procedure, shortened: as §1

Digitaria sanguinalis [15] = assay: Post-emergence herbicidal action against DIGSA
Protocol: Seeds of monocotyledonous and dicotyledonous weed and crop plants are laid out in sandy loam soil in wood-fiber pots, covered with soil and cultivated in a greenhouse under good growth conditions. 2 to 3 weeks after sowing, the test plants are treated at the one-leaf stage. The compounds of the invention, formulated in the form of wettable powders (WP) or as emulsion concentrates (EC), are then sprayed onto the green parts of the plants in the form of an aqueous suspension or emulsion at a water application rate equivalent to 600 to 800 l/ha, with addition of 0.2% wetting agent. After the test plants have been left to stand in the greenhouse under optimal growth conditions for about 3 weeks, the action of the preparations is assessed visually in comparison to untreated controls (herbicidal action in percent (%): 100% activity=the plants have died, 0% activity=like control plants). […] The tables below illustrate, in an illustrative manner, the post-emergence herbicidal action of the compounds of the invention, the herbicidal activity being stated in percent.

Amaranthus retroflexus [16] = assay: Post-emergence herbicidal action against AMARE; settings: visual assessment about 3 weeks after treatment
Procedure, shortened: as §2

Matricaria inodora [17] = assay: Post-emergence herbicidal action against MATIN; settings: visual assessment about 3 weeks after treatment
Procedure, shortened: as §2

Abutilon theophrasti [18] = assay: Post-emergence herbicidal action against ABUTH
Procedure, shortened: as §2

Avena fatua [19] = assay: Pre-emergence herbicidal action against AVEFA; settings: 80 g/ha; visual score after 3 weeks vs untreated controls
Procedure, shortened: as §1

Veronica persica [20] = assay: Post-emergence herbicidal action against VERPE; settings: 20 g/ha, visual assessment about 3 weeks after treatment
Procedure, shortened: as §2

Compound | Pre-emergence action against SETVI (Setaria viridis [1]) [%] | Pre-emergence action against AMARE (Amaranthus retroflexus [2]; 20 g/ha) [%] | Pre-emergence action against AMARE (Amaranthus retroflexus [2]; 80 g/ha) [%] | Post-emergence action against VIOTR in % (Viola tricolor [4]; 20 g/ha) [%] | Post-emergence action against ALOMY (Alopecurus myosuroides [5]; 20 g/ha) [%] | Pre-emergence action against VIOTR (Viola tricolor [6]; 80 g/ha) [%] | Pre-emergence action against ALOMY (Alopecurus myosuroides [7]) [%] | Post-emergence action against ECHCG in % (Echinochloa crus-galli [8]; 20 g/ha) [%] | Pre-emergence action against ABUTH (Abutilon theophrasti [9]; 80 g/ha) [%] | Pre-emergence action against ECHCG (Echinochloa crus-galli [10]) [%] | Pre-emergence action against MATIN (Matricaria inodora [11]; 80 g/ha) [%] | Post-emergence action against SETVI in % (Setaria viridis [13]; 5 g/ha) [%] | Post-emergence action against SETVI in % (Setaria viridis [13]; 20 g/ha) [%] | Pre-emergence action against DIGSA (Digitaria sanguinalis [14]; 20 g/ha) [%] | Pre-emergence action against DIGSA (Digitaria sanguinalis [14]; 80 g/ha) [%] | Post-emergence action against DIGSA in % (Digitaria sanguinalis [15]; 5 g/ha) [%] | Post-emergence action against DIGSA in % (Digitaria sanguinalis [15]; 20 g/ha) [%] | Post-emergence action against AMARE in % (Amaranthus retroflexus [16]; 5 g/ha) [%] | Post-emergence action against AMARE in % (Amaranthus retroflexus [16]; 20 g/ha) [%] | Pre-emergence action against VIOTR (Viola tricolor [6]; 20 g/ha) [%] | also measured
CCN(CC)C(=O)c1c(C(F)(F)F)ccc(C(=O)Nc2nnnn2C)c1C [Example 1-31] | 100 | 100 | 100 | 90 | 90 | 100 | 100 | 90 | 100 | 80 | 100 | 90 | 100 | 100 | 100 | 80 | 90 | 90 | 90 | – | Post-emergence action against AVEFA in % (Avena fatua [3]): 80%; Post-emergence action against VIOTR in % (Viola tricolor [4]; 5 g/ha): 80%; Post-emergence action against ALOMY (Alopecurus myosuroides [5]; 5 g/ha): 80%; Post-emergence action against ECHCG in % (Echinochloa crus-galli [8]; 5 g/ha): 90%; Post-emergence action against PHBPU in % (Pharbitis purpurea; 5 g/ha): 90%; Post-emergence action against PHBPU in % (Pharbitis purpurea; 20 g/ha): 90%; Pre-emergence action against VERPE (Veronica persica [12]; 80 g/ha): 90%
CCN(CC)C(=O)c1c(C(F)(F)F)ccc(C(=O)Nc2nnnn2C)c1Cl [Example 1-135] | 100 | 100 | 100 | 90 | 90 | 100 | 100 | 90 | 100 | 90 | 100 | – | – | – | 100 | 90 | 90 | 80 | 80 | 100 | Post-emergence action against MATIN in % (Matricaria inodora [17]; 20 g/ha): 80%; Post-emergence action against AVEFA in % (Avena fatua [3]): 80%; Post-emergence action against ALOMY (Alopecurus myosuroides [5]; 5 g/ha): 80%; Post-emergence action against ECHCG in % (Echinochloa crus-galli [8]; 5 g/ha): 80%; Pre-emergence action against ABUTH (Abutilon theophrasti [9]; 20 g/ha): 100%; Pre-emergence action against MATIN (Matricaria inodora [11]; 20 g/ha): 90%; Pre-emergence action against VERPE (Veronica persica [12]; 80 g/ha): 90%; Post-emergence action against ABUTH (Abutilon theophrasti [18]; 5 g/ha): 80%; Post-emergence action against ABUTH (Abutilon theophrasti [18]; 20 g/ha): 90%; Pre-emergence action against AVEFA (Avena fatua [19]): 90%
CCN(C(=O)c1c(C(F)(F)F)ccc(C(=O)Nc2nnnn2C)c1C)C1CC1 [Example 1-32] | 100 | 90 | 100 | 100 | 90 | 100 | 90 | 100 | 100 | 90 | 100 | 80 | 90 | 90 | 100 | 90 | 90 | 90 | 100 | 80 | Post-emergence action against AVEFA in % (Avena fatua [3]): 80%; Post-emergence action against VIOTR in % (Viola tricolor [4]; 5 g/ha): 100%; Post-emergence action against ALOMY (Alopecurus myosuroides [5]; 5 g/ha): 80%; Post-emergence action against ECHCG in % (Echinochloa crus-galli [8]; 5 g/ha): 100%; Post-emergence action against PHBPU in % (Pharbitis purpurea; 5 g/ha): 80%; Post-emergence action against PHBPU in % (Pharbitis purpurea; 20 g/ha): 90%
CCn1nnnc1NC(=O)c1ccc(C(F)(F)F)c(C(=O)N(C)C2CC2)c1C [Example 2-21] | 100 | 100 | 100 | 100 | 90 | 100 | – | 90 | 100 | 100 | 100 | 80 | 100 | 100 | 100 | 80 | 90 | 100 | 100 | 100 | Post-emergence action against MATIN in % (Matricaria inodora [17]; 5 g/ha): 80%; Post-emergence action against MATIN in % (Matricaria inodora [17]; 20 g/ha): 90%; Post-emergence action against VIOTR in % (Viola tricolor [4]; 5 g/ha): 100%; Post-emergence action against ALOMY (Alopecurus myosuroides [5]; 5 g/ha): 80%; Post-emergence action against ECHCG in % (Echinochloa crus-galli [8]; 5 g/ha): 90%; Post-emergence action against PHBPU in % (Pharbitis purpurea; 20 g/ha): 90%; Pre-emergence action against MATIN (Matricaria inodora [11]; 20 g/ha): 90%; Pre-emergence action against VERPE (Veronica persica [12]; 20 g/ha): 80%; Pre-emergence action against VERPE (Veronica persica [12]; 80 g/ha): 100%; Pre-emergence action against AVEFA (Avena fatua [19]): 80%
CCn1nnnc1NC(=O)c1ccc(C(F)(F)F)c(C(=O)N(C)C)c1C [Example 2-19] | 100 | – | 100 | 100 | 80 | 100 | 90 | 90 | 100 | 90 | 90 | 80 | 80 | 100 | 100 | – | 90 | 80 | 90 | 80 | Post-emergence action against MATIN in % (Matricaria inodora [17]; 20 g/ha): 80%; Post-emergence action against VIOTR in % (Viola tricolor [4]; 5 g/ha): 80%; Pre-emergence action against ABUTH (Abutilon theophrasti [9]; 20 g/ha): 80%; Pre-emergence action against VERPE (Veronica persica [12]; 80 g/ha): 90%; Post-emergence action against ABUTH (Abutilon theophrasti [18]; 20 g/ha): 100%; Post-emergence action against VERPE in % (Veronica persica [20]): 80%
CCN(CC)C(=O)c1c(C(F)(F)F)ccc(C(=O)Nc2nnnn2CC)c1Cl [Example 2-135] | 100 | 100 | 100 | – | 90 | 100 | 90 | 80 | 100 | 100 | 100 | – | 80 | 80 | 90 | 80 | 90 | 80 | 90 | 100 | Post-emergence action against MATIN in % (Matricaria inodora [17]; 20 g/ha): 80%; Post-emergence action against AVEFA in % (Avena fatua [3]): 80%; Pre-emergence action against ABUTH (Abutilon theophrasti [9]; 20 g/ha): 90%; Pre-emergence action against MATIN (Matricaria inodora [11]; 20 g/ha): 90%
Cc1c(C(=O)Nc2nnnn2C)ccc(C(F)(F)F)c1C(=O)N(C)C [Example 1-19] | 100 | 100 | 100 | 80 | – | 100 | 80 | 90 | 100 | 90 | 90 | 100 | 100 | – | 100 | 90 | 90 | – | 100 | – | Pre-emergence action against ABUTH (Abutilon theophrasti [9]; 20 g/ha): 90%; Post-emergence action against ABUTH (Abutilon theophrasti [18]; 5 g/ha): 90%; Post-emergence action against ABUTH (Abutilon theophrasti [18]; 20 g/ha): 100%; Pre-emergence action against AVEFA (Avena fatua [19]): 80%; Post-emergence action against VERPE in % (Veronica persica [20]): 80%
